Source: ChEMBL document CHEMBL3885881, “DrugMatrix”

Organism: Rattus norvegicus
Assay: DrugMatrix - Regimen: Daily Repeat
Format: toxicity, organism-based, Sprague-Dawley
Set-up: regimen Daily Repeat, gender Male, age 6-8 weeks
Details: in vivo, po, route oral GAVAGE, […]; for ABSOLUTE BASOPHIL / ABSOLUTE EOSINOPHIL / ABSOLUTE LYMPHOCYTE / ABSOLUTE MONOCYTE / ABSOLUTE SEGMENTED NEUTROPHIL / BASOPHIL / EOSINOPHIL / ERYTHROCYTE COUNT / HEMATOCRIT / HEMOGLOBIN / LEUKOCYTE COUNT / LYMPHOCYTE / MEAN CORPUSCULAR HEMOGLOBIN / MEAN CORPUSCULAR HEMOGLOBIN CONCENTRATION / MEAN CORPUSCULAR VOLUME / MONOCYTE / NEUTROPHIL / NUCLEATED RED BLOOD CELLS / PLATELET COUNT: tissue Blood; for ALANINE AMINOTRANSFERASE / ALBUMIN / ALKALINE PHOSPHATASE / ASPARTATE AMINOTRANSFERASE / BLOOD UREA NITROGEN / CARBON DIOXIDE / CHLORIDE / CHOLESTEROL / CREATININE / GLUCOSE / LACTATE DEHYDROGENASE / LIPASE / PHOSPHORUS / POTASSIUM / SODIUM / TOTAL BILIRUBIN / TOTAL PROTEIN / URIC ACID: tissue Plasma
[1] = 0 mg/kg, 72 h, dose level Control, time 3 day
[2] = 0 mg/kg, 120 h, dose level Control, time 5 day
[3] = 250 mg/kg, 72 h, dose level Low, time 3 day

CC(C)Cc1ccc(CC(=O)O)cc1 [IBUFENAC]
ABSOLUTE BASOPHIL [1]: 0 CELLS/uL
ABSOLUTE EOSINOPHIL [1]: 255.83 CELLS/uL
ABSOLUTE LYMPHOCYTE [1]: 11617.83 CELLS/uL
ABSOLUTE MONOCYTE [1]: 307.5 CELLS/uL
ABSOLUTE SEGMENTED NEUTROPHIL [1]: 1902.17 CELLS/uL
BASOPHIL [1]: 0%
EOSINOPHIL [1]: 1.83%
ERYTHROCYTE COUNT [1]: 5.58 x10E6/uL
HEMATOCRIT [1]: 33.62%
HEMOGLOBIN [1]: 12.42 G/DL
LEUKOCYTE COUNT [1]: 14.08 x10E3/uL
LYMPHOCYTE [1]: 82.67%
MEAN CORPUSCULAR HEMOGLOBIN [1]: 22.32 pg
MEAN CORPUSCULAR HEMOGLOBIN CONCENTRATION [1]: 36.98 G/DL
MEAN CORPUSCULAR VOLUME [1]: 60.4 fL
MONOCYTE [1]: 2.17%
NEUTROPHIL [1]: 13.33%
NUCLEATED RED BLOOD CELLS [1]: 0 /100WBC
PLATELET COUNT [1]: 1154.67 x10E3/uL
ALANINE AMINOTRANSFERASE [1]: 64.67 u/L
ALBUMIN [1]: 4.18 G/DL
ALKALINE PHOSPHATASE [1]: 382.67 u/L
ASPARTATE AMINOTRANSFERASE [1]: 123.17 u/L
BLOOD UREA NITROGEN [1]: 17.67 mg/dL
CARBON DIOXIDE [1]: 24.33 mmol/L
CHLORIDE [1]: 101.67 MEQ/L
CHOLESTEROL [1]: 76.5 mg/dL
CREATININE [1]: 0.2 mg/dL
GLUCOSE [1]: 175.33 mg/dL
LACTATE DEHYDROGENASE [1]: 331 u/L
LIPASE [1]: 10.17 u/L
PHOSPHORUS [1]: 12.77 mg/dL
POTASSIUM [1]: 6.65 MEQ/L
SODIUM [1]: 145.8 MEQ/L
TOTAL BILIRUBIN [1]: 0.2 mg/dL
TOTAL PROTEIN [1]: 6.07 G/DL
URIC ACID [1]: 1.78 mg/dL
ABSOLUTE BASOPHIL [2]: 0 CELLS/uL
ABSOLUTE EOSINOPHIL [2]: 155.33 CELLS/uL
ABSOLUTE LYMPHOCYTE [2]: 12695.83 CELLS/uL
ABSOLUTE MONOCYTE [2]: 475.67 CELLS/uL
ABSOLUTE SEGMENTED NEUTROPHIL [2]: 1989.83 CELLS/uL
BASOPHIL [2]: 0%
EOSINOPHIL [2]: 1%
ERYTHROCYTE COUNT [2]: 5.75 x10E6/uL
HEMATOCRIT [2]: 34.98%
HEMOGLOBIN [2]: 12.73 G/DL
LEUKOCYTE COUNT [2]: 15.32 x10E3/uL
LYMPHOCYTE [2]: 83%
MEAN CORPUSCULAR HEMOGLOBIN [2]: 22.17 pg
MEAN CORPUSCULAR HEMOGLOBIN CONCENTRATION [2]: 36.4 G/DL
MEAN CORPUSCULAR VOLUME [2]: 60.92 fL
MONOCYTE [2]: 3%
NEUTROPHIL [2]: 13%
NUCLEATED RED BLOOD CELLS [2]: 0 /100WBC
PLATELET COUNT [2]: 1081.33 x10E3/uL
ALANINE AMINOTRANSFERASE [2]: 55 u/L
ALBUMIN [2]: 4.12 G/DL
ALKALINE PHOSPHATASE [2]: 354.67 u/L
ASPARTATE AMINOTRANSFERASE [2]: 91 u/L
BLOOD UREA NITROGEN [2]: 15 mg/dL
CARBON DIOXIDE [2]: 27.17 mmol/L
CHLORIDE [2]: 100.5 MEQ/L
CHOLESTEROL [2]: 71.5 mg/dL
CREATININE [2]: 0.18 mg/dL
GLUCOSE [2]: 169.17 mg/dL
LACTATE DEHYDROGENASE [2]: 324 u/L
LIPASE [2]: 10.5 u/L
PHOSPHORUS [2]: 12.07 mg/dL
POTASSIUM [2]: 6.58 MEQ/L
SODIUM [2]: 141.92 MEQ/L
TOTAL BILIRUBIN [2]: 0.12 mg/dL
TOTAL PROTEIN [2]: 5.88 G/DL
URIC ACID [2]: 1.6 mg/dL
ABSOLUTE BASOPHIL [3]: 0 CELLS/uL
ABSOLUTE EOSINOPHIL [3]: 268.67 CELLS/uL
ABSOLUTE LYMPHOCYTE [3]: 13501.33 CELLS/uL
ABSOLUTE MONOCYTE [3]: 489 CELLS/uL
ABSOLUTE SEGMENTED NEUTROPHIL [3]: 2041 CELLS/uL
BASOPHIL [3]: 0%
EOSINOPHIL [3]: 1.67%
ERYTHROCYTE COUNT [3]: 5.57 x10E6/uL
HEMATOCRIT [3]: 33.83%
HEMOGLOBIN [3]: 12.4 G/DL
LEUKOCYTE COUNT [3]: 16.3 x10E3/uL
LYMPHOCYTE [3]: 83%
MEAN CORPUSCULAR HEMOGLOBIN [3]: 22.23 pg
MEAN CORPUSCULAR HEMOGLOBIN CONCENTRATION [3]: 36.67 G/DL
MEAN CORPUSCULAR VOLUME [3]: 60.7 fL
MONOCYTE [3]: 3%
NEUTROPHIL [3]: 12.33%
NUCLEATED RED BLOOD CELLS [3]: 0 /100WBC
PLATELET COUNT [3]: 1296 x10E3/uL
ALANINE AMINOTRANSFERASE [3]: 64.67 u/L
ALBUMIN [3]: 4.3 G/DL
ALKALINE PHOSPHATASE [3]: 362.33 u/L
ASPARTATE AMINOTRANSFERASE [3]: 94.67 u/L
BLOOD UREA NITROGEN [3]: 15.67 mg/dL
CARBON DIOXIDE [3]: 26.67 mmol/L
CHLORIDE [3]: 103 MEQ/L
CHOLESTEROL [3]: 79.33 mg/dL
CREATININE [3]: 0.15 mg/dL
GLUCOSE [3]: 164.67 mg/dL
LACTATE DEHYDROGENASE [3]: 128.67 u/L
LIPASE [3]: 9.67 u/L
PHOSPHORUS [3]: 11.4 mg/dL
POTASSIUM [3]: 6.53 MEQ/L
SODIUM [3]: 146.97 MEQ/L
TOTAL BILIRUBIN [3]: 0.17 mg/dL
TOTAL PROTEIN [3]: 6.03 G/DL
URIC ACID [3]: 1.43 mg/dL
